The record followed here is BindingDB's records for patent US10301305 (Mutabilis, 2019).

The structures appear in SMILES notation.

Common to all, as to experiment: in vitro DltA activity assay
For assay [1], the target named is T1, D-alanine--D-alanyl carrier protein ligase (Enterococcus faecalis (strain ATCC 700802 / V583), UniProt Q830N0).
T1 sequence (Q830N0 whole entry): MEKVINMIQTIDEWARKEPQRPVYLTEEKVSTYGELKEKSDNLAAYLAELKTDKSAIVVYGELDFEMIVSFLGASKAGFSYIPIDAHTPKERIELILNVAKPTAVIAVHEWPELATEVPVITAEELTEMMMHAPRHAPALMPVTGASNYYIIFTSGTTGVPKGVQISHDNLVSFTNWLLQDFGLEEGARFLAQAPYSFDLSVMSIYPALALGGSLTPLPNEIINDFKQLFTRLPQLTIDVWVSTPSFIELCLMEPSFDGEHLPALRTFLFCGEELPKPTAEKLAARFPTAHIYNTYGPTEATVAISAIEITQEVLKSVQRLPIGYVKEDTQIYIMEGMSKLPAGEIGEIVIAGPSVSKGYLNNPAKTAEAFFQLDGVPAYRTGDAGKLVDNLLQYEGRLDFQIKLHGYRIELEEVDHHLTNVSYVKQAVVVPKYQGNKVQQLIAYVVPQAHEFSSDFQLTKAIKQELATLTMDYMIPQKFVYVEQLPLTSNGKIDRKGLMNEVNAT
How it is done:
(§1) The assay buffer AB contained 50 mM Hepes pH8.0, 10 mM MgCl2, 50 mM KCl, 0.012% Triton-X100, 10 mM DTT and 100 nM Myelin-basic protein. The following components were added in a white polystyrene Costar plate up to a final volume of 30 μL: 3 μL DMSO, or inhibitor dissolved in DMSO and 27 μL DltA enzyme in AB. After 30 min of pre-incubation at room temperature, 30 μL of Substrates mix in AB were added in each well to a final volume of 60 μL. This reaction mixture was then composed of DltA (produced in house from S. aureus, E. faecalis, E. faecium and S. agalactiae), 0.5 mM D-Alanine (Sigma), 0.5-5 μM ATP (Sigma) and 0.05 u/ml inorganic pyrophosphatase (Sigma) in assay buffer. After typically 1-2 hours of incubation at room temperature (conversion rate around 30%), 30 μL of the revelation mix were added to a final volume of 90 μL, including the following constituents at the respective final concentrations: 10000 u/ml luciferase (Sigma), 30 μM D-luciferin (Sigma), 100 μM N-acetylcysteamine (Aldrich). Luminescence intensity was immediately measured on a Fluostar Optima (BMG) (excitation 360 nm, emission 520 nm) and converted into inhibition percentages. For IC50 determinations (Inhibitory Concentration 50%) the inhibitor was added at 6 to 10 different concentrations and the related inhibitions were fitted to a classical Langmuir equilibrium model using XLFIT (IDBS).

Assay [2] deals with T2, D-alanine--D-alanyl carrier protein ligase (Enterococcus faecium (strain ATCC BAA-472 / TX0016 / DO), UniProt Q3XZT7).
T2 sequence (Q3XZT7 whole entry): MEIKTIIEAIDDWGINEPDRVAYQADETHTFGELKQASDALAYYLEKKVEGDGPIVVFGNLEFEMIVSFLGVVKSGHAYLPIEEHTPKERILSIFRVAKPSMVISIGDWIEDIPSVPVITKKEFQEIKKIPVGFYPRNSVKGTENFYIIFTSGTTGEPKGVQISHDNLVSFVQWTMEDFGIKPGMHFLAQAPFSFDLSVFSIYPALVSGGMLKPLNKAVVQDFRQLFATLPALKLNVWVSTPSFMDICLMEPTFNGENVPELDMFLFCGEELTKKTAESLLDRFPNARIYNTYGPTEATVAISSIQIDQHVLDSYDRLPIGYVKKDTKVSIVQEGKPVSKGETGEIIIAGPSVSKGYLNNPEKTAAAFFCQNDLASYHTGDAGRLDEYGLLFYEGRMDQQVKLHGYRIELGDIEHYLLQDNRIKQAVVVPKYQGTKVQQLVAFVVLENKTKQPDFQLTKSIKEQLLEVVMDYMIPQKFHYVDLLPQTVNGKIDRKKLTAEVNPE
How it is done:
as §1

Assay [3] concerns the target T3, D-alanine--D-alanyl carrier protein ligase (Staphylococcus aureus, UniProt Q2FZW6).
T3 construct: gene dltA
How it is done: as §1

T3 sequence (Q2FZW6 whole entry, looked up): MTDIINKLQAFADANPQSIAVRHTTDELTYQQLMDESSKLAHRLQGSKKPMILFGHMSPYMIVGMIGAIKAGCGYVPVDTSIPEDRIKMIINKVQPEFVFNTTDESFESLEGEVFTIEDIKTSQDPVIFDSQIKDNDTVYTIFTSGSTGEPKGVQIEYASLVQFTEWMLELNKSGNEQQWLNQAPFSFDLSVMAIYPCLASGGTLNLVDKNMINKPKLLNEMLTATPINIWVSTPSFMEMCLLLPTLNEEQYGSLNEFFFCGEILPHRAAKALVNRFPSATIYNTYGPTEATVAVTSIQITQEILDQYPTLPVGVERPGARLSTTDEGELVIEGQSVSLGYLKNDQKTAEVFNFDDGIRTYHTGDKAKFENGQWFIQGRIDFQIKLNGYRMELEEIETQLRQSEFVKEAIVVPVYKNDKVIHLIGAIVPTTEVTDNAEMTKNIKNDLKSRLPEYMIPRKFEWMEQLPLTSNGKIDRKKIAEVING

With `C[C@H]1CCCC(n2cnc3cc(-c4cc(N(C)CCN(C)C)c(C(N)=O)c5[nH]cnc45)ccc32)C1` (mixture of isomers), the IC50 came to 4.3 nM in assay [1] and 25 nM in assay [2].

Consider `COc1cc(-c2ccc3c(c2)ncn3C2CCCCC2)c2nc[nH]c2c1C(N)=O` [US10301305, Example 88], for which the concentration for half-maximal inhibition (IC50) in assay [1] was 26 nM; in assay [3], 33 nM; in assay [2], 79 nM.

Take `CCn1cnc2cc(-c3cc(OCCN(C)C)c(C(N)=O)c4[nH]cnc34)ccc21` [US10301305, Example 198]: the IC50 in assay [1] is 8.3 nM; in assay [3], 6.8 nM; in assay [2], 73 nM.

By IC50 is commonly meant the concentration that gives 50% inhibition. Higher therefore signals lower potency.
